Two molecules from US20230058160A1, “METABOLITE-BASED POLYMERS, MICROPARTICLES, AND NANOPARTICLES FOR IMMUNOTHERAPY AND METHODS OF TREATING A DISEASE OR DISORDER” (priority 2020, published 2023) can be followed below.

One experiment has as its system DCs. As to the kind of experiment: Seahorse ECAR/OCR of dendritic cells (glycolysis stress test). Format: cell-based, C57BL/6j mice. The procedure: In order to test if F16BP particles can rescue DCs from exhaustion when cultured in the presence of PFK15, ECAR using Seahorse assays was utilized. Specifically, DCs were cultured with either PFK 15 (200 nM), F16BP (0.1 mg/mL) or PFK15+F16BP with or without LPS and ECAR measurements were obtained.
Specifically, immature DCs were obtained from C57BL/6j mice and cultured with PEGS (0.1 mg/mL) with or without CB-839 (30 nM or 240 nM) for 16 hours. After 16 hours of incubation, DCs were incubated in glucose free medium and ECAR and OCR values were recorded using Seahorse extracellular flux (XF) analyzer (glucose addition at 20 min).

A further experiment relates to YUMM1.1 cells. Description: MTT cell viability assay, YUMM1.1 melanoma cells. Format: cell-based, mouse. How it is done: (§1) In order to determine if PFK15 prevents melanoma cell growth in vitro, two different mouse melanoma cells were utilized, namely YUMM1.1 (BrafV600E/wt, Pten−/− Cdkn2−/−MHClHi) and B16F10. Specifically, YUMM1.1 and B16F10 cells were cultured with different concentrations of […], and the percentage cell viability was determined using MTT assay.
(§2) In order to determine if […] prevents melanoma cell growth in vitro, two different mouse melanoma cells were utilized, namely YUMM1.1 and B16F10. Specifically, YUMM1.1 and B16F10 cells were cultured with different concentrations of […], and the percentage cell viability was determined using MTT assay.
A general note: Tetrazolium dyes change colour on reduction, which living cells bring about.

In experiment [1] the test system is bone marrow derived dendritic cells. As to the kind of experiment: Dendritic cell activation by flow cytometry (MHCII, CD86, CD11c). Format: cell-based, C57BL/6j mice. The following applies: for DC activation (CD86+ and MHCII+CD86+ populations in CD11c+ DCs), inhibitor alone: 200 nM PFK15 or 30 nM CB-839; for concentration that prevented the activation of DCs: 24 hours incubation, MHCII, CD86, CD11c staining. The procedure:
In order to test the effect of PFKFB3 inhibition on DC and T cell activation, PFK15 was employed. Specifically, DCs were isolated from bone marrow of C57BL/6j mice using GM-CSF, and incubated with different concentrations of PFK15 (50, 100, 200, 400, 800, 1600 nM) for 24 hours. These cells were then stained for MHCII, CD86 and CD 11c to determine activation profile. It was observed that at 200 nM and higher concentrations of PFK15 prevented the activation of DCs (FIG. 3—200 nM shown as example).
In order to test the effect of glutaminase inhibition on DC activation, bone marrow DCs were isolated from C57BL/6j mice and cultured with different concentrations of CB-839, a clinically validated molecule (0, 15, 30, 60, 120 nM) for 24 hours. These cells were then stained for MHCII, CD86, and CD11c to determine activation profile. It was observed that at 30 nM and higher concentrations of CB-839 prevented the activation of DCs (FIG. 11—30 nM is shown as a representative example).
Specifically, DCs were cultured in the presence of CB-839 with or without PEGS (0.1 mg/mL) and with or without LPS (0.1 μg/mL) for 24 hours. Cells were then stained for MHC-II, CD86 and CD11c and analyzed using flow cytometry.
In general terms: A flow cytometer gives signals particle by particle.

The test system of another experiment is B16F10 cells. As to the kind of experiment: MTT cell viability assay, B16F10 melanoma cells. In kind it is cell-based, mouse. How it is done: as §1, §2
Another experiment concerns YUMM1.1 tumors. Description: YUMM1.1 tumor model in mice. In kind it is in vivo. How it is done:
In order to determine if the injection of F16BP particles in vivo can lead to longer survival in mice, study design shown in FIG. 7A and FIG. 7B was followed.
In order to test the efficacy of F16BP particles-based vaccines to reduce tumor growth in mice, C57BL/6j mice were utilized. Specifically, tumors were induced by injecting 0.75×10^6 cells in the back of the mice. From day 18 onwards, mice were injected with the F16BP based vaccines injected subcutaneously (0.5 mg/mouse) every 3 days (total 3 treatments—days 21, 24, 27) with PFK15 (5 mg/kg) injected every other day intraperitoneally (FIG. 7A—same study design as survival but mice euthanized day 28 for T cell analyses). Controls included PFK15 injections every alternate day, or no treatment. Mice were then sacrificed on day 26 and the tumors, draining lymph nodes, and non-draining contralateral lymph nodes were harvested.

Entries after “also recorded” stand apart in the source; their conditions may differ.

In the case of `O=C(Cc1cccc(OC(F)(F)F)c1)Nc1ccc(CCCCc2nnc(NC(=O)Cc3ccccn3)s2)nn1` [CB-839], in the experiment on DCs (30 nM CB-839, 16 hours), the “glycolysis and mitochondrial respiration in DCs (ECAR and OCR), CB-839 alone” value was “block glycolysis and mitochondrial respiration; also recorded: do not upregulate glycolysis or mitochondrial respiration”. Also, the IC50 in the experiment on YUMM1.1 cells (Mus musculus, MTT assay, percentage cell viability, read-out: IC50 to prevent proliferation of YUMM1.1 cells) turned out to be 3.75 nM. Further, in experiment [1], the “DC activation (CD86+ and MHCII+CD86+ populations in CD11c+ DCs), inhibitor alone” value (shortened to “DC activation … inhibitor alone”) is recorded as “significantly reduces activation in DCs”; the “concentration that prevented the activation of DCs” value is ≥ 30 nM.
For `O=C(/C=C/c1ccc2ccccc2n1)c1ccncc1` [PFK15], the “ECAR of DCs, PFK15 without LPS” value with DCs (PFK15 200 nM without LPS) is on record as “even lower than the no treatment control”. Further, the “killing of YUMM1.1 cells in vitro” value with YUMM1.1 cells was “able to kill”. This molecule came in with an IC50 of YUMM1.1 melanoma cells using PFK-15 (FIG. 6B) in the experiment with YUMM1.1 cells (MTT assay, n=6) of 5000 nM. In the experiment with B16F10 cells, the “killing of B16F10 cells in vitro” value is on record as “able to kill”. The “tumor burden / tumor growth” value in the experiment on YUMM1.1 tumors (F16BP vaccine 0.5 mg/mouse s.c., PFK15 5 mg/kg i.p., vs PFK15 alone and no treatment) was “significant improvements in tumor burden”. The “improvement of survival of mice” value in the experiment with YUMM1.1 tumors (PFK15 5 mg/kg intraperitoneally every other day) is 15 days. Moreover, in experiment [1], the “DC activation … inhibitor alone” value is reported as “significantly reduces activation in DCs”; the “concentration that prevented the activation of DCs” value is reported as ≥ 200 nM. In addition, in experiment [1] (listed as PFK-15), the “DC activation … inhibitor alone” value is on record as “downregulated”.
